Measurements as given in ChEMBL document CHEMBL3627615, “Discovery of the disubstituted oxazole analogues as a novel class anti-tuberculotic agents against MDR- and XDR-MTB” (Bioorg Med Chem Lett, 2015).
Converted amounts (≈) assume the structure as drawn.

Key:
[1] = test system: Mycobacterium tuberculosis; test: Antimycobacterial activity against Mycobacterium tuberculosis H37Rv ATCC 27294 after 5 days by microplate alamar blue assay; assay type: functional; settings: H37Rv ATCC 27294, 120 h
HEK293 = test: Cytotoxicity against human HEK293 cells after 36 hrs by MTT assay; assay type: cell-based; settings: HEK293, 36 h
Pseudomonas aeruginosa = test: Antibacterial activity against Pseudomonas aeruginosa by agar dilution method; assay type: functional
Staphylococcus aureus = test: Antibacterial activity against Staphylococcus aureus by agar dilution method; assay type: functional
Serratia marcescens = test: Antibacterial activity against Serratia marcescens by agar dilution method; assay type: functional
Proteus vulgaris = test: Antibacterial activity against Proteus vulgaris by agar dilution method; assay type: functional
Klebsiella pneumoniae = test: Antibacterial activity against Klebsiella pneumoniae by agar dilution method; assay type: functional
Escherichia coli = test: Antibacterial activity against Escherichia coli by agar dilution method; assay type: functional
[2] = test system: Acinetobacter calcoaceticus; test: Antibacterial activity against Acinetobacter calcoaceticus by agar dilution method; assay type: functional
Proteus mirabilis = test: Antibacterial activity against Proteus mirabilis by agar dilution method; assay type: functional

Question: Which MIC90 [1] does the source give for COc1ccc(C(=O)C2CCN(Cc3coc(-c4ccc(F)cc4)n3)CC2)cc1OC here?
Answer: 8 µg/mL (≈ 18.8 µM)

Question: And the IC50 (HEK293)?
Answer: > 150 µg/mL

Question: How did the MIC90 [1] turn out when O=C(c1ccc2c(c1)OCCO2)C1CCN(Cc2coc(-c3ccc(F)cc3)n2)CC1 was run?
Answer: 8 µg/mL (≈ 18.9 µM)

Question: And the IC50 (HEK293)?
Answer: > 150 µg/mL

Question: Which results are given for O=C(c1ccc2c(c1)OCCO2)C1CCN(Cc2coc(-c3ccc(Cl)cc3)n2)CC1?
Answer: MIC80 (Pseudomonas aeruginosa): > 128 µg/mL; MIC90 [1]: 2 µg/mL (≈ 4.56 µM); MIC80 (Staphylococcus aureus): > 128 µg/mL; MIC80 (Serratia marcescens): > 128 µg/mL; MIC80 (Proteus vulgaris): > 128 µg/mL; MIC80 (Klebsiella pneumoniae): > 128 µg/mL; IC50 (HEK293): > 150 µg/mL; MIC80 (Escherichia coli): > 128 µg/mL; MIC80 [2]: > 128 µg/mL; MIC80 (Proteus mirabilis): > 128 µg/mL

Question: With O=C(c1ccc2c(c1)OCCO2)C1CCN(Cc2coc(-c3ccc(Br)cc3)n2)CC1 as the molecule, how does the MIC90 [1] read?
Answer: 8 µg/mL (≈ 16.6 µM)

Question: What about the IC50 (HEK293) of the same molecule?
Answer: > 150 µg/mL

Question: How did the MIC90 [1] turn out when O=C(c1ccc2c(c1)OCCO2)C1CCN(Cc2coc(-c3ccccc3)n2)CC1 was run?
Answer: 4 µg/mL (≈ 9.89 µM)

Question: And the IC50 (HEK293)?
Answer: > 150 µg/mL

Question: With O=C(c1ccc2c(c1)OCCO2)C1CCN(Cc2coc(-c3ccc(C(F)(F)F)cc3)n2)CC1 as the molecule, how does the MIC90 [1] read?
Answer: 32 µg/mL (≈ 67.7 µM)

Question: What about the IC50 (HEK293) of the same molecule?
Answer: > 150 µg/mL

Question: With O=C(c1ccc2c(c1)OCCO2)C1CCN(Cc2coc(-c3ccc(F)c(F)c3)n2)CC1 as the molecule, how does the MIC90 [1] read?
Answer: 8 µg/mL (≈ 18.2 µM)

Question: And the IC50 (HEK293)?
Answer: > 150 µg/mL

Question: For O=C(c1ccc2c(c1)OCCO2)C1CCN(Cc2coc(-c3ccccc3F)n2)CC1, which MIC90 [1] is on record?
Answer: 8 µg/mL (≈ 18.9 µM)

Question: What about the IC50 (HEK293) of the same molecule?
Answer: > 150 µg/mL

Question: How did the MIC90 [1] turn out when O=C(c1ccc2c(c1)OCCO2)C1CCN(Cc2coc(-c3cccc(F)c3)n2)CC1 was run?
Answer: 4 µg/mL (≈ 9.47 µM)

Question: And the IC50 (HEK293)?
Answer: > 150 µg/mL

Question: Which results are given for COc1ccc(-c2nc(CN3CCC(C(=O)c4ccc5c(c4)OCCO5)CC3)co2)cc1?
Answer: MIC90 [1]: 8 µg/mL (≈ 18.4 µM); IC50 (HEK293): > 150 µg/mL

Question: How did the MIC90 [1] turn out when Cc1ccc(-c2nc(CN3CCC(C(=O)c4ccc5c(c4)OCCO5)CC3)co2)cc1 was run?
Answer: 64 µg/mL (≈ 153 µM)

Question: And the IC50 (HEK293)?
Answer: > 150 µg/mL

Question: How did the MIC80 (Pseudomonas aeruginosa) turn out when CC(C)(C)c1ccc(-c2nc(CN3CCC(C(=O)c4ccc5c(c4)OCCO5)CC3)co2)cc1 was run?
Answer: > 128 µg/mL

Question: What about the MIC90 [1] of the same molecule?
Answer: 8 µg/mL (≈ 17.4 µM)

Question: What about the MIC80 (Staphylococcus aureus) of the same molecule?
Answer: > 128 µg/mL

Question: What about the MIC80 (Serratia marcescens) of the same molecule?
Answer: > 128 µg/mL

Question: What about the MIC80 (Proteus vulgaris) of the same molecule?
Answer: > 128 µg/mL

Question: And the MIC80 (Klebsiella pneumoniae)?
Answer: > 128 µg/mL

Question: And the IC50 (HEK293)?
Answer: > 150 µg/mL

Question: What about the MIC80 (Escherichia coli) of the same molecule?
Answer: > 128 µg/mL

Question: What about the MIC80 [2] of the same molecule?
Answer: > 128 µg/mL

Question: And the MIC80 (Proteus mirabilis)?
Answer: > 128 µg/mL

Question: How did the MIC90 [1] turn out when O=C(c1ccc2c(c1)OCCO2)C1CCN(Cc2coc(-c3cccnc3)n2)CC1 was run?
Answer: 32 µg/mL (≈ 78.9 µM)

Question: What about the IC50 (HEK293) of the same molecule?
Answer: > 150 µg/mL

Question: O=C(c1ccc2c(c1)OCCO2)C1CCN(Cc2coc(-c3ccco3)n2)CC1 was tested. Which MIC90 [1] did it give?
Answer: 16 µg/mL (≈ 40.6 µM)

Question: What about the IC50 (HEK293) of the same molecule?
Answer: > 150 µg/mL

Question: For O=C(c1ccc2c(c1)OCCO2)C1CCN(Cc2coc(-c3ccoc3)n2)CC1, which MIC90 [1] is on record?
Answer: 32 µg/mL (≈ 81.1 µM)

Question: And the IC50 (HEK293)?
Answer: > 150 µg/mL

Question: O=C(c1ccc2c(c1)OCCO2)C1CCN(Cc2csc(-c3ccc(Cl)cc3)n2)CC1 was tested. Which MIC90 [1] did it give?
Answer: > 128 µg/mL

Question: How did the MIC90 [1] turn out when CC(C)(C)c1ccc(-c2nc(CN3CCC(C(=O)c4ccc5c(c4)OCCO5)CC3)cs2)cc1 was run?
Answer: > 128 µg/mL

Question: With O=C(c1ccc2c(c1)OCCO2)C1CCN(Cc2cc(-c3ccc(F)cc3)on2)CC1 as the molecule, how does the MIC90 [1] read?
Answer: > 128 µg/mL

Question: With O=C(c1ccc2c(c1)CCCC2)C1CCN(Cc2coc(-c3ccc(F)cc3)n2)CC1 as the molecule, how does the MIC80 (Pseudomonas aeruginosa) read?
Answer: > 128 µg/mL

Question: What about the MIC90 [1] of the same molecule?
Answer: 1 µg/mL (≈ 2.39 µM)

Question: And the MIC80 (Staphylococcus aureus)?
Answer: > 128 µg/mL

Question: What about the MIC80 (Serratia marcescens) of the same molecule?
Answer: > 128 µg/mL

Question: And the MIC80 (Proteus vulgaris)?
Answer: > 128 µg/mL

Question: And the MIC80 (Klebsiella pneumoniae)?
Answer: > 128 µg/mL

Question: And the IC50 (HEK293)?
Answer: > 150 µg/mL

Question: And the MIC80 (Escherichia coli)?
Answer: > 128 µg/mL

Question: And the MIC80 [2]?
Answer: > 128 µg/mL

Question: What about the MIC80 (Proteus mirabilis) of the same molecule?
Answer: > 128 µg/mL

Question: Which MIC90 [1] does the source give for O=C(c1ccc(F)c(F)c1)C1CCN(Cc2coc(-c3ccc(F)cc3)n2)CC1 here?
Answer: 2 µg/mL (≈ 5 µM)

Question: What about the IC50 (HEK293) of the same molecule?
Answer: > 150 µg/mL

Question: For O=C(c1ccccc1)C1CCN(Cc2coc(-c3ccc(F)cc3)n2)CC1, which MIC90 [1] is on record?
Answer: 2 µg/mL (≈ 5.49 µM)

Question: And the IC50 (HEK293)?
Answer: > 150 µg/mL

Question: With Cc1ccc(C(=O)C2CCN(Cc3coc(-c4ccc(F)cc4)n3)CC2)cc1C as the molecule, how does the MIC90 [1] read?
Answer: 8 µg/mL (≈ 20.4 µM)

Question: And the IC50 (HEK293)?
Answer: > 150 µg/mL

Question: Which results are given for Cc1ccc(C(=O)C2CCN(Cc3coc(-c4ccc(F)cc4)n3)CC2)cc1?
Answer: MIC90 [1]: 4 µg/mL (≈ 10.6 µM); IC50 (HEK293): > 150 µg/mL

Question: How did the MIC90 [1] turn out when COc1ccc(C(=O)C2CCN(Cc3coc(-c4ccc(F)cc4)n3)CC2)cc1 was run?
Answer: 4 µg/mL (≈ 10.1 µM)

Question: What about the IC50 (HEK293) of the same molecule?
Answer: > 150 µg/mL

Question: What does the source list for CC(C)(C)c1ccc(-c2nc(CN3CCC(C(=O)c4ccc5c(c4)CCCC5)CC3)co2)cc1?
Answer: MIC90 [1]: 8 µg/mL (≈ 17.5 µM); IC50 (HEK293): > 150 µg/mL

Question: Which MIC90 [1] does the source give for CC[C@@H](CO)NCCN[C@@H](CC)CO [ETHAMBUTOL] here?
Answer: < 0.5 µg/mL

Question: NNC(=O)c1ccncc1 [ISONIAZID] was tested. Which MIC90 [1] did it give?
Answer: < 0.5 µg/mL

Question: Which MIC90 [1] does the source give for CO[C@H]1/C=C/O[C@@]2(C)Oc3c(C)c(O)c4c(O)c(c(/C=N/N5CCN(C)CC5)c(O)c4c3C2=O)NC(=O)/C(C)=C\C=C\[C@H](C)[C@H](O)[C@@H](C)[C@@H](O)[C@@H](C)[C@H](OC(C)=O)[C@@H]1C [RIFAMPIN] here?
Answer: < 0.5 µg/mL

Question: Which MIC90 [1] does the source give for CN[C@@H]1[C@H](O[C@H]2[C@H](O[C@H]3[C@H](O)[C@@H](O)[C@H](N=C(N)N)[C@@H](O)[C@@H]3N=C(N)N)O[C@@H](C)[C@]2(O)C=O)O[C@@H](CO)[C@H](O)[C@H]1O [STREPTOMYCIN] here?
Answer: < 0.5 µg/mL
